Data published in US20230348362A1, “LIPID COMPOUNDS AND LIPID NANOPARTICLE COMPOSITIONS” (Suzhou Abogen Biosciences Co., Ltd., priority 2021, published 2023).

How the values were obtained:
Format in all cases: physicochemical
[1] = Encapsulation efficiency of lipid nanoparticles, Quant-it Ribogreen RNA assay; conditions: LNP of lipid/DSPC/cholesterol/PEG-lipid 50:10:38.5:1.5 encapsulating hEPO mRNA
Method: (§1) Briefly, a cationic lipid provided herein, DSPC, cholesterol, and PEG-lipid were solubilized in ethanol at a molar ratio of 50:10:38.5:1.5, and mRNA were diluted in 10 to 50 mM citrate buffer, pH=4. The LNPs were prepared at a total lipid to mRNA weight ratio of approximately 10:1 to 30:1 by mixing the ethanolic lipid solution with the aqueous mRNA solution at a volume ratio of 1:3 using a microfluidic apparatus, total flow rate ranging from 9-30 mL/min. Ethanol were thereby removed and replaced by DPBS using dialysis. Finally, the lipid nanoparticles were filtered through a […] sterile filter.
(§2) Lipid nanoparticle size were determined by dynamic light scattering using a Malvern Zetasizer Nano ZS (Malvern UK) using a […] backscatter detection mode. The encapsulation efficiency of lipid nanoparticles were determined using a Quant-it Ribogreen RNA quantification assay kit (Thermo Fisher Scientific, UK) according to the manufacturer's instructions.

[2] = Lipid nanoparticle size and polydispersity by dynamic light scattering; conditions: LNP of lipid/DSPC/cholesterol/PEG-lipid 50:10:38.5:1.5 encapsulating hEPO mRNA
Method: as §1, §2

[3] = Apparent pKa of LNP formulations, TNS fluorescence assay; conditions: LNP cationic lipid/DSPC/cholesterol/DMG-PEG 50/10/38.5/1.5 mol %
Method: As reported in literature, the apparent pKa of LNP formulations correlates with the delivery efficiency of LNPs for nucleic acids in vivo. The apparent pKa of each formulation was determined using an assay based on fluorescence of 2-(p-toluidino)-6-napthalene sulfonic acid (TNS). LNP formulations comprising of cationic lipid/DSPC/cholesterol/DMG-PEG (50/10/38.5/1.5 mol %) in PBS were prepared as described above. TNS was prepared as a 300 μM stock solution in distilled water. LNP formulations were diluted to 0.1 mg/mL total lipid in 3 mL of buffered solutions containing 50 mM sodium citrate, 50 mM sodium phosphate, 50 mM sodium borate, and 30 mM sodium chloride where the pH ranged from 3 to 9. An aliquot of the TNS solution was added to give a final concentration of […] and following vortex mixing fluorescence intensity was measured at room temperature in a Molecular Devices Spectramax iD3 spectrometer using excitation and mission wavelengths of 325 nm and 435 nm. A sigmoidal best fit analysis was applied to the fluorescence data and the pKa value was measured as the pH giving rise to half-maximal fluorescent intensity.

CCCCCCCCC(CCCCCCCC)COC(=O)CCCCCN(CCC)CCN(CCO)CCCCCC(=O)OCC(CCCCCCCC)CCCCCCCC [Compound 32]
Encapsulation Efficiency [1]: 92.1%
polydispersity [2]: 0.04
size (nm) [2]: 57.09 nm
Apparent Pka [3]: 6.378

CCCCCCCCC(CCCCCCCC)COC(=O)CCCCCN(CCO)CCN(CCCCCC(=O)OCC(CCCCCCCC)CCCCCCCC)C1CCOC1 (centres unmarked) [Compound 33]
Encapsulation Efficiency [1]: 87.6%
polydispersity [2]: 0.052
size (nm) [2]: 57.51 nm
Apparent Pka [3]: 6.305

CCCCCCCCC(CCCCCCCC)COC(=O)CCCCCN(CCO)CCN(CCCCCC(=O)OCC(CCCCCCCC)CCCCCCCC)C1CCCCC1C (centres unmarked) [Compound 34]
Encapsulation Efficiency [1]: 87.2%
polydispersity [2]: 0.05
size (nm) [2]: 55.14 nm
Apparent Pka [3]: 5.485

CCCCCCCCC(CCCCCCCC)COC(=O)CCCCCN(CCO)CCN(CCCCCC(=O)OCC(CCCCCCCC)CCCCCCCC)CC1CCCC1 [Compound 35]
Encapsulation Efficiency [1]: 90.0%
polydispersity [2]: 0.089
size (nm) [2]: 54.18 nm
Apparent Pka [3]: 5.843

CCCCCCCCC(CCCCCCCC)COC(=O)CCCCCN(CCO)CCN(CCCCCC(=O)OCC(CCCCCCCC)CCCCCCCC)Cc1ccccc1 [Compound 36]
Encapsulation Efficiency [1]: 89.3%
polydispersity [2]: 0.093
size (nm) [2]: 49.69 nm
Apparent Pka [3]: 5.802

CCCCCCCCC(CCCCCCCC)COC(=O)CCCCCN(CCO)CCN(CCCCCC(=O)OCC(CCCCCCCC)CCCCCCCC)Cc1ccncc1 [Compound 37]
Encapsulation Efficiency [1]: 87.2%
polydispersity [2]: 0.037
size (nm) [2]: 71.53 nm
Apparent Pka [3]: 6.988

CCCCCCCCC(CCCCCCCC)COC(=O)CCCCCN(CCO)CCN(CCCCCC(=O)OCC(CCCCCCCC)CCCCCCCC)Cc1ccc([N+](=O)[O-])cc1 [Compound 38]
Encapsulation Efficiency [1]: 89.8%
polydispersity [2]: 0.092
size (nm) [2]: 54.42 nm
Apparent Pka [3]: 6.253

CCCCCCCCC(CCCCCCCC)COC(=O)CCCCCN(CCO)CCN(CCCCCC(=O)OCC(CCCCCCCC)CCCCCCCC)Cc1ccc(C)cc1 [Compound 39]
Encapsulation Efficiency [1]: 84.0%
polydispersity [2]: 0.034
size (nm) [2]: 55.02 nm
Apparent Pka [3]: 5.740

CCCCCCCCC(CCCCCCCC)COC(=O)CCCCCN(CCO)CCN(CCCCCC(=O)OCC(CCCCCCCC)CCCCCCCC)C1CCC(C)CC1 (centres unmarked) [Compound 40]
Encapsulation Efficiency [1]: 87.1%
polydispersity [2]: 0.03
size (nm) [2]: 52.06 nm
Apparent Pka [3]: 5.838

C/C=C/CN(CCCCCC(=O)OCC(CCCCCCCC)CCCCCCCC)CCN(CCO)CCCCCC(=O)OCC(CCCCCCCC)CCCCCCCC [Compound 41]
Encapsulation Efficiency [1]: 88.2%
polydispersity [2]: 0.067
size (nm) [2]: 55.24 nm
Apparent Pka [3]: 6.134

CCCCCCCCC(CCCCCCCC)COC(=O)CCCCCN(CC=C(C)C)CCN(CCO)CCCCCC(=O)OCC(CCCCCCCC)CCCCCCCC [Compound 42]
Encapsulation Efficiency [1]: 90.1%
polydispersity [2]: 0.046
size (nm) [2]: 66.04 nm
Apparent Pka [3]: 6.159

CCCCCCCCCCCOC(=O)CCCCCN(CCN(CCO)CCCCCCC(=O)OCC(CCCCCCCC)CCCCCCCC)C1CCCCC1 [Compound 43]
Encapsulation Efficiency [1]: 89.6%
polydispersity [2]: 0.07
size (nm) [2]: 66.41 nm
Apparent Pka [3]: 6.346

CCCCCCCCCCCOC(=O)CCCCCN(CCO)CCN(CCCCCC(=O)OCC(CCCCCCCC)CCCCCCCC)C1CCCCC1 [Compound 45]
Encapsulation Efficiency [1]: 90.9%
polydispersity [2]: 0.051
size (nm) [2]: 63.5 nm
Apparent Pka [3]: 6.402

CCCCCCCCCCCOC(=O)CCCCCN(CCN(CCO)CCCCCC(=O)C(CCCCCC)CCCCCCCCC)C1CCCCC1 (centres unmarked) [Compound 46]
Encapsulation Efficiency [1]: 90.3%
polydispersity [2]: 0.042
size (nm) [2]: 64.14 nm
Apparent Pka [3]: 6.335

CCCCCCCCCCCOC(=O)CCCCCN(CCN(CCO)CCCCCC(=O)OCC(CCCCCCCCCC)CCCCCCCCCC)C1CCCCC1 [Compound 47]
Encapsulation Efficiency [1]: 91.0%
polydispersity [2]: 0.037
size (nm) [2]: 66.29 nm
Apparent Pka [3]: 6.298

CCCCCCCCCCCOC(=O)CCCCCN(CCN(CCO)CCCCCCCC(=O)OCC(CCCCCCCC)CCCCCCCC)C1CCCCC1 [Compound 48]
Encapsulation Efficiency [1]: 92.1%
polydispersity [2]: 0.037
size (nm) [2]: 73.5 nm
Apparent Pka [3]: 6.295

CCCCCCCCCCCOC(=O)CCCCCN(CCN(CCO)CCCCCC(=O)OCC(CCCCCCCC)CCCCCCCC)C1CCC(F)(F)CC1 [Compound 49]
Encapsulation Efficiency [1]: 95.5%
polydispersity [2]: 0.1
size (nm) [2]: 55.04 nm
Apparent Pka [3]: 6.153

CCCCCCCCCCCOC(=O)CCCCCN(CCN(CCO)CCCCCC(=O)OCC(CCCCCCCC)CCCCCCCC)C1CC(F)(F)C1 [Compound 50]
Encapsulation Efficiency [1]: 93.4%
polydispersity [2]: 0.235
size (nm) [2]: 59.59 nm
Apparent Pka [3]: 5.786

CCCCCCCCC(CCCCCCCC)COC(=O)CCCCCN(C)CCN(CCCCCC(=O)OCC(CCCCCCCC)CCCCCCCC)C1CCC(O)CC1 (centres unmarked) [Compound 51]
Encapsulation Efficiency [1]: 97.0%
polydispersity [2]: 0.028
size (nm) [2]: 83.92 nm
Apparent Pka [3]: 6.579

CCCCCCCCC(CCCCCCCC)COC(=O)CCCCCN(CCC)CCN(CCCCCC(=O)OCC(CCCCCCCC)CCCCCCCC)C1CCC(O)CC1 (centres unmarked) [Compound 52]
Encapsulation Efficiency [1]: 95.6%
polydispersity [2]: 0.089
size (nm) [2]: 67.63 nm
Apparent Pka [3]: 6.114

CCCCCCCCC(CCCCCCCC)COC(=O)CCCCCN(CCCCCC)CCN(CCCCCC(=O)OCC(CCCCCCCC)CCCCCCCC)C1CCC(O)CC1 (centres unmarked) [Compound 53]
Encapsulation Efficiency [1]: 95.7%
polydispersity [2]: 0.062
size (nm) [2]: 63.7 nm
Apparent Pka [3]: 5.872

CCCCCCCCCCCOC(=O)CCCCCN(CCN(CCO)CCCCCC(=O)OCC(CCCCCCCC)CCCCCCCC)C1CC(OC)C1 (centres unmarked) [Compound 54]
Encapsulation Efficiency [1]: 93.4%
polydispersity [2]: 0.065
size (nm) [2]: 77.99 nm
Apparent Pka [3]: 6.51

CCCCCCCCC(CCCCCCCC)COC(=O)CCCCCN(CCN(CCCCCC(=O)OCC(CCCCCCCC)CCCCCCCC)C1CCC(O)CC1)C1CCC1 (centres unmarked) [Compound 55]
Encapsulation Efficiency [1]: 95.6%
polydispersity [2]: 0.071
size (nm) [2]: 83.97 nm
Apparent Pka [3]: 5.951

CCCCCCCCC(CCCCCCCC)COC(=O)CCCCCN(CCO)CCN(CCCCCC(=O)OCC(CCCCCCCC)CCCCCCCC)Cc1ccc(O)cc1 [Compound 56]
Encapsulation Efficiency [1]: 92.96%
polydispersity [2]: 0.174
size (nm) [2]: 57.44 nm
Apparent Pka [3]: 6.702

CCCCCCCCCCCC(=O)OCCCCCN(CCN(CCO)CCCCCOC(=O)CC(CCCCCCCC)CCCCCCCC)C1CCCCC1 [Compound 57]
Encapsulation Efficiency [1]: 91.7%
polydispersity [2]: 0.044
size (nm) [2]: 79.95 nm
Apparent Pka [3]: 6.509

CCCCCCCCCCCC(=O)NCCCCCN(CCN(CCO)CCCCCNC(=O)CC(CCCCCCCC)CCCCCCCC)C1CCCCC1 [Compound 58]
Encapsulation Efficiency [1]: 97.7%
polydispersity [2]: 0.1
size (nm) [2]: 110 nm
Apparent Pka [3]: 7.327
